Assay [1] concerns the target T1, Lck (p56^lck, active) (Homo sapiens, UniProt P06239).
T1 construct: purchased UBI, Upstate Biotech, Inc
Kind of assay: SRC-Inhibitor-Assay (time-resolved fluorescence kinase assay), Lck. The assay is classed as biochemical. As to conditions: ATP 5 μM, peptide 10 μM, enzyme 2.5 U/ml, pre-incubated 15 min at 15° C. From the text:
(§1) The activity of the compounds according to this invention as inhibitors for the src-family tyrosine kinases was shown by using the following assay.
(§2) SRC-Inhibitor-Assay Parameters:
(§3) Time-resolved Fluorescence Assay: Reader: Perkin Elmer, Wallac Viktor 1420-040 multilabel counter; Liquid handling system: Beckman Coulter, Biomek 2000.
(§4) ATP, Tween™ 20, 4-(2-hydroxyethyl)-1-piperazineethanesulfonic acid (HEPES) were purchased from Roche Molecular Biochemicals, MgCl2 and MnCl2 were purchased from Merck Eurolab, Tris(2-carboxyethyl)phosphine hydrochloride (TCEP) was purchased from Pierce, 384 Well low volume fluorescence plates was purchased from Falcon.
(§5) At first the enzyme is pre-incubated for 15 min. at 15° C. in aqueous solution with corresponding amounts of inhibitors according to this invention. Then the phosphorylation reaction is started by adding a reaction mixture, containing ATP, Peptide and PT66, and subsequent shaking. The proceeding of this reaction is immediately monitored using time resolved fluorescence spectroscopy in a suitable well plate reader.
(§6) The IC50-values can be obtained from the reaction rates by using a non-linear curve fit (XLfit software (ID Business Solution Ltd., Guilford, Surrey, UK))

The target in assay [2] is T2, Src (p60^c-src, partially purified) (Homo sapiens, UniProt P12931).
T2 construct: purchased UBI, Upstate Biotech, Inc
T2 sequence (P12931 whole entry, species assumed): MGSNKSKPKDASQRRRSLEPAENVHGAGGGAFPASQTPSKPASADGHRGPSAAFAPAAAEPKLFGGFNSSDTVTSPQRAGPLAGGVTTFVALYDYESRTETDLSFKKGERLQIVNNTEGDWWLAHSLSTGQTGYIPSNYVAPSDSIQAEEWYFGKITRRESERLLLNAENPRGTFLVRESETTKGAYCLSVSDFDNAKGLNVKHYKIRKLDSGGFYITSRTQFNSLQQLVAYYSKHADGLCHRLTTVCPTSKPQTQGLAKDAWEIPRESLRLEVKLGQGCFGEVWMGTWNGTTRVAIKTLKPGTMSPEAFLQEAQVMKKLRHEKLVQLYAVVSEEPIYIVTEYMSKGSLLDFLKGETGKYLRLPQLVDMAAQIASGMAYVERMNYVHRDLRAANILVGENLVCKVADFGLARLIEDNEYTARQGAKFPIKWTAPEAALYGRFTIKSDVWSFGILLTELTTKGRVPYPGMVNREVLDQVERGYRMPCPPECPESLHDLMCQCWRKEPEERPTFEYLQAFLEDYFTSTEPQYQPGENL
Put plainly: SRC-Inhibitor-Assay (time-resolved fluorescence kinase assay), Src. The class given is biochemical. The conditions noted are these: ATP 5 μM, peptide 10 μM, enzyme 2.5 U/ml, pre-incubated 15 min at 15° C.
Excerpt: as §1, §2, §3, §4, §5, §6

Molecules are shown by their SMILES. pIC50: −log10 of the molar value.

T1 sequence (P06239 whole entry, species assumed): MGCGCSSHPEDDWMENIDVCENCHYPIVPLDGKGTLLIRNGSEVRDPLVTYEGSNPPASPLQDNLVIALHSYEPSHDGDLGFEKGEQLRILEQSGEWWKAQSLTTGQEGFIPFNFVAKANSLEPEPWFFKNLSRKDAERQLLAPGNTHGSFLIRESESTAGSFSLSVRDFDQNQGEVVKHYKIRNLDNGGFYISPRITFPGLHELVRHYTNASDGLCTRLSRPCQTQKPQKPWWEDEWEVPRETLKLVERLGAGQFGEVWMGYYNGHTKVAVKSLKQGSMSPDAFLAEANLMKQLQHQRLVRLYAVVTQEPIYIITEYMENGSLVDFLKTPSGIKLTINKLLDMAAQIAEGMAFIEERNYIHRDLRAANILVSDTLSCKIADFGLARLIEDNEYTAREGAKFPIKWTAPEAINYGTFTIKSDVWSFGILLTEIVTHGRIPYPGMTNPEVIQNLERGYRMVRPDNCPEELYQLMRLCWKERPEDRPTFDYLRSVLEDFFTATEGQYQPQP

Usually pIC50 stands for the IC50 on a negative log10 scale, so that one unit is a factor of ten. A low value points to a high IC50. Consider `COCCCNc1cc(-c2nc3cc(NC(=O)c4ccccc4Cl)cnc3[nH]2)ccn1` [Example 14-1, 2-Chloro-N-{2-[2-(3-methoxy-propylamino)-pyridin-4-yl]-3H-imidazo[4,5-b]pyridin-6-yl}-benzamide], for which the pIC50 in assay [1] was 5.05 to 7.40; in assay [2], 6.52 to 8.30.

For `O=C(Nc1cnc2[nH]c(-c3ccccc3)nc2c1)c1ccccc1Cl` [Example 1-1, 2-Chloro-N-(2-phenyl-3H-imidazo[4,5-b]pyridin-6-yl)-benzamide], the pIC50 is 6.32 in assay [1] and 7.68 in assay [2].

Consider `COc1cc(OC)cc(C(=O)Nc2cnc3[nH]c(-c4ccccc4)cc3c2)c1` [Example 12-12, 3,5-Dimethoxy-N-(2-phenyl-1H-pyrrolo[2,3-b]pyridine-5-yl)-benzamide], for which the pIC50 in assay [1] was 5.05 to 7.40; in assay [2], 6.52 to 8.30.

As to `Cc1ccc(-c2nc3cc(NC(=O)c4ccccc4Cl)cnc3[nH]2)cn1` [Example 7-2, 2-Chloro-N-[2-(6-methyl-pyridin-3-yl)-3H-imidazo[4,5-b]pyridine-6-yl]-benzamide], the pIC50 is 5.05 to 7.40 in assay [1] and 6.52 to 8.30 in assay [2].

In the case of `O=C(Nc1cnc2[nH]c(-c3ccc(N4CCOCC4)cc3)nc2c1)c1ccccc1Cl` [Example 4-5, 2-Chloro-N-[2-(4-morpholin-4-yl-phenyl)-3H-imidazo[4,5-b]pyridin-6-yl]-benzamide], the pIC50 in assay [1] was 7.31; in assay [2] it was 8.15.

On to `C[S+]([O-])c1cccc(-c2nc3cc(NC(=O)c4ccccc4Cl)cnc3[nH]2)c1` (centres unmarked) [Example 9-1, 2-Chloro-N-[2-(3-methanesulfinyl-phenyl)-3H-imidazo[4,5-b]pyridine-6-yl]-benzamide], for which the pIC50 is 5.05 to 7.40 in assay [1] and 6.52 to 8.30 in assay [2].

For `Cc1cccc(Cl)c1C(=O)Nc1cnc2[nH]c(-c3ccccc3)nc2c1` [Example 1-2, 2-Chloro-6-methyl-N-(2-phenyl-3H-imidazo[4,5-b]pyridin-6-yl)-benzamide], the results for the pIC50 in assay [1] and in assay [2] were 5.05 to 7.40 and 6.52 to 8.30, respectively.

With `Cc1ccc(N)cc1C(=O)Nc1cnc2[nH]c(-c3ccccc3)nc2c1` [Example 2-1, 5-Amino-2-methyl-N-(2-phenyl-3H-imidazo[4,5-b]pyridin-6-yl)-benzamide], the figures for the pIC50 in assay [1] and in assay [2] were 6.80 and 6.87, respectively.

With `O=C(Nc1cnc2[nH]c(-c3ccccc3)nc2c1)c1ccccc1Br` [Example 1-3, 2-Bromo-N-(2-phenyl-3H-imidazo[4,5-b]pyridin-6-yl)-benzamide], the figures for the pIC50 in assay [1] and in assay [2] were 5.05 to 7.40 and 6.52 to 8.30, respectively.

Take `O=C(Nc1cnc2[nH]c(-c3ccccc3)nc2c1)c1ccccc1` [Example 1-6, N-(2-Phenyl-3H-imidazo[4,5-b]pyridin-6-yl)-benzamide]: the pIC50 is 5.05 to 7.40 in assay [1] and 6.52 to 8.30 in assay [2].

For the molecule `Cc1ccc([N+](=O)[O-])cc1C(=O)Nc1cnc2[nH]c(-c3ccccc3)nc2c1` [Example 1-4, 2-Methyl-5-nitro-N-(2-phenyl-3H-imidazo[4,5-b]pyridin-6-yl)-benzamide], the pIC50 in assay [1] was 5.05 to 6.00; in assay [2], 5.46 to 6.52.

As for `COCCN(CCOC)c1ccc(-c2nc3cc(NC(=O)c4ccccc4Cl)cnc3[nH]2)cc1F` [Example 13-1, N-(2-{4-[Bis-(2-methoxy-ethyl)-amino]-3-fluoro-phenyl}-3H-imidazo[4,5-b]pyridin-6-yl)-2-chloro-benzamide], the pIC50 is 5.05 to 7.40 in assay [1] and 6.52 to 8.30 in assay [2].

Regarding `Nc1ccc(Cl)c(C(=O)Nc2cnc3[nH]c(-c4ccccc4)nc3c2)c1` [Example 3-1, 5-Amino-2-chloro-N-(2-phenyl-3H-imidazo[4,5-b]pyridin-6-yl)-benzamide], the pIC50 is 5.05 to 7.40 in assay [1] and 6.52 to 8.30 in assay [2].

For the molecule `CSc1cccc(-c2nc3cc(NC(=O)c4ccccc4Cl)cnc3[nH]2)c1` [Example 7-3, 2-Chloro-N-[2-(3-methylsulfanyl-phenyl)-3H-imidazo[4,5-b]pyridine-6-yl]-benzamide], the pIC50 in assay [1] is 5.05 to 7.40; in assay [2], 6.52 to 8.30.

In the case of `COCCOc1ccc(-c2cc3cc(NC(=O)c4ccccc4OC)cnc3[nH]2)cc1` [Example 12-14, 2-Methoxy-N-{2-[4-(2-methoxy-ethoxy)-phenyl]-1H-pyrrolo[2,3-b]pyridin-5-yl}-benzamide], the pIC50 in assay [1] is 5.05 to 7.40; in assay [2], 6.52 to 8.30.

As for `O=C(Nc1cnc2[nH]c(-c3ccccc3)cc2c1)c1ccccc1Cl` [Example 12-1, 2-Chloro-N-(2-phenyl-1H-pyrrolo[2,3-b]pyridine-5-yl)-benzamide], the pIC50 in assay [1] was 5.05 to 7.40; in assay [2], 6.52 to 8.30.

In the case of `CN1CCN(c2ccc(-c3nc4cc(NC(=O)c5ccccc5Cl)cnc4[nH]3)cc2)CC1` [Example 4-8, 2-Chloro-N-{2-[4-(4-methyl-piperazin-1-yl)-phenyl]-3H-imidazo[4,5-b]pyridin-6-yl}-benzamide], the values for the negative logarithm of the IC50 (pIC50) in assay [1] and in assay [2] were 5.05 to 7.40 and 6.52 to 8.30, respectively.

In the case of `O=C(Nc1cnc2[nH]c(-c3ccc(N4CCOCC4)nc3)nc2c1)c1ccccc1Cl` [Example 7-7, 2-Chloro-N-[2-(6-morpholin-4-yl-pyridin-3-yl)-3H-imidazo[4,5-b]pyridine-6-yl]-benzamide], the pIC50 in assay [1] is 5.05 to 7.40; in assay [2], 6.52 to 8.30.

As for `CCN(CC)CCOc1ccc(-c2nc3cc(NC(=O)c4ccccc4Cl)cnc3[nH]2)cc1` [Example 4-1, 2-Chloro-N-{2-[4-(2-diethylamino-ethoxy)-phenyl]-3H-imidazo[4,5-b]pyridin-6-yl}-benzamide], the pIC50 in assay [1] is 5.05 to 7.40; in assay [2] it was 6.52 to 8.30.

In the case of `COCC(COC)NC(=O)c1cccc(-c2nc3cc(NC(=O)c4ccccc4Cl)cnc3[nH]2)c1` [Example 6-3, 2-Chloro-N-(2-{3-[2-methoxy-1-methoxymethyl-ethylcarbamoyl]-phenyl}-3H-imidazo[4,5-b]pyridin-6-yl)-benzamide], the figures for the pIC50 in assay [1] and in assay [2] were 5.05 to 7.40 and 6.52 to 8.30, respectively.

In the case of `O=C(Nc1cnc2[nH]c(-c3ccccc3)cc2c1)c1ccc(Cl)cc1Cl` [Example 12-4, 2,4-Dichloro-N-(2-phenyl-1H-pyrrolo[2,3-b]pyridine-5-yl)-benzamide], the pIC50 in assay [1] was 5.05 to 7.40; in assay [2], 6.52 to 8.30.

Consider `COCCOc1ccc(-c2nc3cc(NC(=O)c4ccccc4Cl)cnc3[nH]2)cc1` [Example 4-2, 2-Chloro-N-{2-[4-(2-methoxy-ethoxy)-phenyl]-3H-imidazo[4,5-b]pyridin-6-yl}-benzamide], for which the values for the pIC50 in assay [1] and in assay [2] were 5.05 to 7.40 and 6.52 to 8.30, respectively.

Regarding `O=C(Nc1cnc2[nH]c(-c3ccc4[nH]cnc4c3)nc2c1)c1ccccc1Cl` [Example 7-5, N-[2-(1H-Benzoimidazol-5-yl)-3H-imidazo[4,5-b]pyridine-6-yl]-2-chloro-benzamide], the pIC50 in assay [1] is 5.05 to 7.40; in assay [2], 6.52 to 8.30.

Regarding `COCCC(=O)Nc1cccc(-c2nc3cc(NC(=O)c4ccccc4Cl)cnc3[nH]2)c1` [Example 1-7, 2-Chloro-N-{2-[3-(3-methoxy-propionylamino)-phenyl]-3H-imidazo[4,5-b]pyridin-6-yl}-benzamide], the pIC50 is 5.05 to 7.40 in assay [1] and 6.52 to 8.30 in assay [2].

As for `CC(=O)Nc1cccc(-c2nc3cc(NC(=O)c4ccccc4Cl)cnc3[nH]2)c1` [Example 11-1, N-[2-(3-Acetylamino-phenyl)-3H-imidazo[4,5-b]pyridine-6-yl]-2-chloro-benzamide], the pIC50 in assay [1] is 5.05 to 7.40; in assay [2], 6.52 to 8.30.

Regarding `Cc1ccccc1C(=O)Nc1cnc2[nH]c(-c3ccccc3)cc2c1` [Example 12-7, 2-Methyl-N-(2-phenyl-1H-pyrrolo[2,3-b]pyridine-5-yl)-benzamide], the values for the pIC50 in assay [1] and in assay [2] were 5.05 to 7.40 and 6.52 to 8.30, respectively.

Regarding `Nc1cccc(-c2nc3cc(NC(=O)c4ccccc4Cl)cnc3[nH]2)c1` [Example 10-1, N-[2-(3-Amino-phenyl)-3H-imidazo[4,5-b]pyridine-6-yl]-2-chloro-benzamide], the results for the pIC50 in assay [1] and in assay [2] were 5.05 to 7.40 and 6.52 to 8.30, respectively.

As to `O=C(Nc1cnc2[nH]c(-c3ccsc3)nc2c1)c1ccccc1Cl` [Example 4-7, 2-Chloro-N-(2-thiophen-3-yl-3H-imidazo[4,5-b]pyridin-6-yl)-benzamide], the figures for the pIC50 in assay [1] and in assay [2] were 5.05 to 7.40 and 6.52 to 8.30, respectively.

Consider `Cc1cccc(Cl)c1C(=O)Nc1cnc2[nH]c(-c3ccccc3)cc2c1` [Example 12-5, 2-Chloro-6-methyl-N-(2-phenyl-1H-pyrrolo[2,3-b]pyridine-5-yl)-benzamide], for which the pIC50 is 5.05 to 7.40 in assay [1] and 6.52 to 8.30 in assay [2].

Turning to `O=C(Nc1cnc2[nH]c(-c3ccccc3)nc2c1)c1cc([N+](=O)[O-])ccc1Cl` [Example 1-5, 2-Chloro-5-nitro-N-(2-phenyl-3H-imidazo[4,5-b]pyridin-6-yl)-benzamide], the pIC50 was 5.05 to 6.00 in assay [1] and 5.46 to 6.52 in assay [2].

For `O=C(Nc1cnc2[nH]c(-c3cccs3)nc2c1)c1ccccc1Cl` [Example 4-6, 2-Chloro-N-(2-thiophen-2-yl-3H-imidazo[4,5-b]pyridin-6-yl)-benzamide], the results for the pIC50 in assay [1] and in assay [2] were 5.05 to 7.40 and 6.52 to 8.30, respectively.
